Values quoted from earlier work, collected in patent US20090220426A1, “Biodegradable Inverted-Opal Structure, Method for Manufacturing and Using the Same, and Medical Implant Comprising the Biodegradable Inverted-Opal Structure” (KINKI UNIVERSITY, priority 2006, published 2009).

Test system: mouse

L.D.50 (oral mouse) | SMILES
25,500 mg/kg | OCCCCCO [1,5-pentanediol]
25,500 mg/kg | OCC(CO)(CO)CO [pentaerythritol]
